Results on one compound are retold here after patent publication US10172884B2, “Dialysis solutions comprising organic esters of phosphoric acid” (Fresenius Medical Care Deutschland GmbH, priority 2015, dated 2019).

A short description of the series: modified rapid controlled precipitation method (controlled degassing of CO2 until precipitation). The series is classed as physicochemical. From the text: The “Rapid-Controlled Precipitation Method” or the “Critical pH Method” can be used for determining the stability of the dialysis solution such as is described in F. Hui et al: Journal European of Water Quality (Journal European d'Hydrologie) T.33 Fasc. 1 (2002).
The results described within the framework of this disclosure were obtained by a modified rapid controlled precipitation method. The experiment setup comprises six 3-neck flasks (Carousel-6 from Radleys) which are open toward the top to ensure a uniform degassing of CO2 from the solution. Furthermore, this setup allows an in-line measurement of e.g. the pH and the conductivity as well as the simultaneous heating of the flasks.
The basic principle of the method used comprises the pH of the mixed solution or of the dialysis solution being slowly raised by controlled degassing of CO2 until the dialysis solution reaches a metastable state and ultimately precipitates.
A pH measurement, a particle count or a turbidity measurement can be used, for example, as methods for detecting the precipitation. […] The measured curves which can be obtained using these methods are compared in FIG. 3. […]
The pHmax and the precipitation products of the different solutions are compiled in Table 4 shown in the following. The values were all determined at 40° C. using the “rapid degassing” method. […]

Regarding `O=P(O)(O)OCC(O)CO` (centres unmarked) [glycerol orthophosphate], the Precipitation product result (40° C., rapid degassing method) is “no phosphates low in solubility are formed”. Besides, the “stability of the solution (pHmax and tG values)” value (T=40° C., result in words, FIGS. 10, 12, 13, 15) was “almost the same stabilizing effect as the addition of 0.1 mmol/L orthophosphate”.
